Patent US5874472A, “Aminoacid derivatives as no synthase inhibitors” (Glaxo Wellcome Inc., priority 1993, dated 1999)

What was measured:
NO synthase = conditions: background statement; cited from earlier work
[1] = phenylalanine-loaded rat; Chemical Abstracts vol. 89, 191755v; cited from earlier work
human placental NOS = target: T1, human placental NOS (Homo sapiens, UniProt P29474); experiment: Inhibition of human placental NOS (citrulline formation); format: biochemical; conditions: 1 μM L-[14C] arginine; pH 7.4; calmodulin, CaCl2
T1 construct: Purification of NOS from human placenta; from tissue; host or cells: fresh human placenta, amnion and chorion removed; ammonium sulfate and 2',5' ADP agarose purified
Procedure: It is noted that the NO synthase isolated from human placenta most probably represents the endothelial constitutive isoenzyme.
Purification of NOS from human placenta.
Amion and chorion were removed from fresh placenta, which was then rinsed with 0.9% NaCl. The tissue was homogenized in a Waring blender in 3 volumes of HEDS buffer (20 mM Hepes pH 7.8, 0.1 mM EDTA, 5 mM DTT, 0.2M sucrose) plus 0.1 mM PMSF.
The homogenate was filtered through cheesecloth and then centrifuged at 1000 g for 20 min. The supernatant was recentrifuged at 27500 g for 30 min. Solid ammonium sulfate was added to the supernatant to give 32% saturation. Precipitated protein was pelleted at 25,000 g and then redissolved in a minimal volume of HEDS buffer plus 0.1 mM PMSF, 10 μg/ml leupeptin and soybean trypsin inhibitor, and 1 μg/ml pepstatin. The redissolved pellet was centrigued at 15000 g for 10 min. To the supernatant was added 1/20 volume of 2',5' ADP agarose resin (Sigma), and the slurry was mixed slowly overnight. In morning, slurry was packed into a column. The resin was sequentially washed with HEDS, 0.5M NaCl in HEDS, HEDS, and then NOS was eluted with 10 mM NADPH in HEDS. The enzyme could be concentrated by ultrafiltration and quick frozen and stored at -70° C. without loss in activity for at least 6 months.
Assay for human placental NOS
(§1) NOS was assayed for the formation of citrulline following the procedure of Schmidt et al (PNAS 88 365-369, 1991) with these modifications: 20 mM Hepes, pH 7.4, 10 μg/ml calmodulin, 2.5 mM CaCl2 2.5 mM DTT, 125 μM NADPH 10 μM H4 Biopterin, 0.5 mg/ml BSA, and 1 μM L-[^14 C] arginine (New England Nuclear). Linearity of NOS-catalyzed rate was confirmed prior to kinetic studies that used single time point determination of rate.

inducible human NOS = target: T2, inducible human NOS (Homo sapiens, UniProt P35228); experiment: Inhibition of inducible human NOS (citrulline formation), enzyme from cytokine-induced DLD-1 cells; format: biochemical; conditions: NOS from cytokine-induced DLD-1 cells; 1 μM L-[14C] arginine; pH 7.4; 10 μM FAD, no calmodulin/CaCl2
T2 construct: Purification of NOS cytokine-induced human colorectal adenocarcinoma DLD-1 cells; host or cells: DLD-1 cells induced with interferon-gamma, interleukin-6, tumor necrosis factor and interleukin-1beta; 2',5' ADP Sepharose purified
Procedure: as §1
Purification of NOS cytokine-induced human colorectal adenocarcinoma DLD-1 cells.
DLD-1 (ATCC No. CCL 221) were grown at 37° C., 5% CO2 in RPMI 1640 medium supplemented with L- glutamin, penicillin, streptomycin, and 10% heat-inactivated fetal bovine serum. Cells were grown to confluency and then the following cocktail of cytokines were added: 100 units/ml interferon-gamma, 200 units/ml interleukin-6, 10 ng/ml tumor necrosis factor, and 0.5 ng/ml interieukin-1β. At 10-24 hr post-induction, cells were harvested by scraping and washed with phosphate-buffered saline. Pelleted cells were stored at -70° C. Purification of the induced NOS was performed at 4° C. Crude extract was prepared by three cycles of freeze/thawing cells in TDGB (20 mM tris pH 7.5, 10% glycerol, 1 mM DTT, 2 μM tetrahydrobiopterin). Extract was applied directly onto a column of 2',5' ADP sepharse (Pharmacia). Resin was sequentially washed with TDGB, 0.5 M NaCl in TDGB, TDGB. NOS was eluted with 2 mM NADPH in TDGB. BSA was immediately added to give a final concentration of 1 mg/ml. NOS could be quick frozen and stored at -70° C. without loss in activity for at least 2 months.
Assay for inducible human NOs.
The formation of citrulline was assayed as described above except that 10 μM FAD was included and calmodulin and CaCl2 were excluded from the assay mix.

human brain NOS = target: T3, human brain NOS (Homo sapiens, UniProt P29475); experiment: Inhibition of human brain NOS (citrulline formation); format: biochemical; conditions: Schmidt et al. 1991 procedure, 10 μM tetrahydrobiopterin included
T3 construct: Purification of NOS from human brain; from tissue; host or cells: frozen human brain; ammonium sulfate, 2',5' ADP-agarose, calmodulin-agarose
Procedure: Purification of NOS from human brain
Human brain NOS was prepared using variations of the procedures of Schmidt et al. (PNAS 88 365-369, 1991), Mayer et al. (Fed. Eur. Biochem. Soc. 288 187-191, 1991), and Bredt and Snyder, (PNAS 87 682-685, 1990). Briefly, frozen human brain (1050 gm) was homogenized in cold buffer A (50 mM HEPES, pH 7.5 (pH at RT) and 0.5 mM EDTA, 10 mM DTT, 3.6 L total volume) with a polytron. The mixture was centrifuged at 13,000 g for 1 hour and the supernatant was removed (about 2050 ml). To the supernatant, solid aimmonium sulfate (365 gm, about 30% of saturation) was added and stirred slowly for a total of 30 minutes. The precipitate was pelleted at 13,000 g for 30 minutes and the pellet was resuspended in ~400 mls of buffer A with 4 μM tetrahydrobiopterin, 1 μM FAD (Sigma), 1 μM FMN (Sigma). The solution was centrifuged at 41,000 g for 60 minutes. The supernatant was removed, frozen by pouring into liquid nitrogen, and stored overnight at -70° C. The mixture was thawed and passed through a 2',5' ADP-agarose column (0.4 g swelled in buffer A) at 4 ml/min. The column was washed with 100 ml buffer A, 200 ml buffer A with 500 mM NaCl, 100 ml Buffer A, then 30 ml buffer A with 5 mM NADPH. To the enzyme eluted from the column was added glycerol to 15%, CaCl2 to 1 mM, tetrahydrobiopterin to 10 μM, tween to 0.1% and FAD, FMN to 1 μM each. The enzyme was then passed through a 1 ml calmodulin-agarose column which had been equilibrated in Buffer A, 15% glycerol and 1 mM CaCl2. The column was washed with 15 ml Buffer A, 15% glycerol and 1 mM CaCl2, 15 ml of Buffer A, 15% glycerol and 5 mM EDTA, and then enzyme activity was eluted with 3 ml of Buffer A, 15% glycerol and 5 mM EDTA, 1 M NaCl. To the enzyme was added tetrahydrobiopterin to 10 μM, FAD and FMN to 1 μM, and tween to 0.1%. This solution was concentrated by centriprep-30 to a volume of approximately 500 μl. Human NOS was prepared completely analogously except the calmodulin-agarose column was not used. Enzyme activity was determined as described by Schmidt et al. 1991, except that 10 μM tetrahydrobiopterin was included in the assay.

Compound: CN=C(N)NCCC[C@H](N)C(=O)O [L-NMMA, L-N-monomethyl-arginine]
- inhibition of the synthesis of NO from L-arginine (NO synthase): can be inhibited
- selectivity between constitutive and inducible NO synthase (NO synthase): non-selective

Compound: N=C(N)NCc1ccc(C[C@H](N)C(=O)O)cc1 [4-guanidinomethylphenylalanine]
- renal excretion of cystine [1]: to some extent
- renal excretion of lysine [1]: increased

Compound: N=C(N)Nc1ccc(C[C@H](N)C(=O)O)cc1 [4-guanidino phenylalanine]
- renal excretion of cystine [1]: to some extent
- renal excretion of lysine [1]: increased

Compound: nitroarginine
- selectivity between constitutive and inducible NO synthase (NO synthase): non-selective

Compound: N=C(N)Nc1ccc(CC(N)C(=O)O)s1 (racemic) [Compound 2, 3-(5-Guanidino-2-thienyl)-DL-alanine]
- Ki (human placental NOS): ≤ 50 µM
- Ki (inducible human NOS): ≤ 50 µM
- Ki (human brain NOS): ≤ 10 µM

Compound: CSC(=N)NCc1ccc(C(N)C(=O)O)s1 (racemic) [Compound 24]
- Ki (human placental NOS): > 50 µM
- Ki (inducible human NOS): > 50 µM
- Ki (human brain NOS): > 50 µM

Compound: CSC(=N)Nc1cccc(CC(N)C(=O)O)c1 (racemic) [Compound 26, 3-(S-methylisothioureido)-DL-phenylalanine]
- Ki (human placental NOS): ≤ 10 µM
- Ki (inducible human NOS): ≤ 50 µM
- Ki (human brain NOS): ≤ 10 µM
